Data: patent publication US20250188069A1, “COMPOUNDS AND METHODS FOR DEGRADING CASEIN KINASE 1 ALPHA” (PIN THERAPEUTICS, INC., priority 2022, published 2025)
Counter-ions that a name gives are not always drawn. Like-named read-outs stand apart in the source and are kept apart here.

How the values were obtained:
Format in all cases: cell-based
CK1α [1] = biological target: T1, CK1α (Homo sapiens, UniProt P48729+Q96SW2); experiment: CK1α HiBiT assay in CK1a_HiBiT_Jurkat cells; details: DC50 class, 16 hours, Nano-Glo HiBiT Lytic Detection, read-out: CK1α degradation classification
T1 sequence (P48729 whole entry): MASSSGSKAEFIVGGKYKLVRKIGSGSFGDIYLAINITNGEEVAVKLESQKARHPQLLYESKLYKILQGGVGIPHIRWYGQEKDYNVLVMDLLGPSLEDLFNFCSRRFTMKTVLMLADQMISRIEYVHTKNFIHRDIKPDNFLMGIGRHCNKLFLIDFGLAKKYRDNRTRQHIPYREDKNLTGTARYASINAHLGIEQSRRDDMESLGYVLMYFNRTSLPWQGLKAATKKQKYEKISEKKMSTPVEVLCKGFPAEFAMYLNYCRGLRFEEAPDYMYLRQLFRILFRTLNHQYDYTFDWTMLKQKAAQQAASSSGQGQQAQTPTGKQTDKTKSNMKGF
T1 sequence (Q96SW2 whole entry): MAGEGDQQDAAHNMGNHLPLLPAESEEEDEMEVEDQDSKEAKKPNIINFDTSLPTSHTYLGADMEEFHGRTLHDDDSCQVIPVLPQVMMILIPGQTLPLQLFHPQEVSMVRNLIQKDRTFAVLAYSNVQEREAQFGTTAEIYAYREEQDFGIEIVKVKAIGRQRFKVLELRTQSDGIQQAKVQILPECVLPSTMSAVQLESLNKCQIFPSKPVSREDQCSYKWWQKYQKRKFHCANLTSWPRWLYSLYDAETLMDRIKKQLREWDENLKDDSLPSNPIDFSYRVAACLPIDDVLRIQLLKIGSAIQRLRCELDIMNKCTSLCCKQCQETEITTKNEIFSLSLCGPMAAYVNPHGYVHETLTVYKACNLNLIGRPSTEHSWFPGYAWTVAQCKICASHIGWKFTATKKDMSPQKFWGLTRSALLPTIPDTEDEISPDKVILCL
T1 sequence (Q16531 whole entry partner): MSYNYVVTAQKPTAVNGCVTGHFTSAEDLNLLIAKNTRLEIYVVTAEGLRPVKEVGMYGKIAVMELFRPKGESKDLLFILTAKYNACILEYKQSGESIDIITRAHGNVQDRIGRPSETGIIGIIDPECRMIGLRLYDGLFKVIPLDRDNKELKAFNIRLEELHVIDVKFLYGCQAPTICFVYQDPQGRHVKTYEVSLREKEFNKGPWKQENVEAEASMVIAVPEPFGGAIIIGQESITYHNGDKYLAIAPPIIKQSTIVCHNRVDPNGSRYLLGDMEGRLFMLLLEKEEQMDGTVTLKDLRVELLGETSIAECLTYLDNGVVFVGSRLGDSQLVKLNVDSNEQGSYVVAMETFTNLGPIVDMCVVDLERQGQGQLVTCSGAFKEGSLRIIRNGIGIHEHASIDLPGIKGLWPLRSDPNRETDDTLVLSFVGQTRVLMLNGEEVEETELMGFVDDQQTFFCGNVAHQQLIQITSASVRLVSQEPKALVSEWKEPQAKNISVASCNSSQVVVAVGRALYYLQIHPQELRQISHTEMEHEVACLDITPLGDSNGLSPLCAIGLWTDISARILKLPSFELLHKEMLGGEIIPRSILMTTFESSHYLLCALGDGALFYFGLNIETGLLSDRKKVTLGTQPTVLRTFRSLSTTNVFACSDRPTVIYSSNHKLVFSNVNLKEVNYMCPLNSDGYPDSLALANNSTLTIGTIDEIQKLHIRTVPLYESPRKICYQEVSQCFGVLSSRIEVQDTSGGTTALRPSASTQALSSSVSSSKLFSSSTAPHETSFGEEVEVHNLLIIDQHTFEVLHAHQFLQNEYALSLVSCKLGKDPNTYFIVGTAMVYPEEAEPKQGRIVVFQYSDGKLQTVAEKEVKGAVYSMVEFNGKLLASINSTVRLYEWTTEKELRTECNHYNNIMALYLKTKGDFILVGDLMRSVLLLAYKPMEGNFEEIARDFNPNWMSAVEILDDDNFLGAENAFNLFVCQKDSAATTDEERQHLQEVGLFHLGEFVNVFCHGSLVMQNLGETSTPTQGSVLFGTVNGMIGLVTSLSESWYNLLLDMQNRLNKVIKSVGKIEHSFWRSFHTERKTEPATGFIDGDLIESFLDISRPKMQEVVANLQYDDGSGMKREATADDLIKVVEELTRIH
Experimental: CK1a_HiBiT_Jurkat cells were culture in RPMI 1640 medium (Gibco, 11875093) with 10% FBS under standard tissue culture conditions. Briefly, Compounds of the present disclosure was added to 30,000 cells in a white 96-well plate (9-point dose response, top concentration […], half-log serial dilution, final DMSO concentration 0.5%) and incubated for 16 hours. CK1a level was determined in along with the Nano-Glo HiBiT Lytic Detection system [Promega N3050] with final concentration of 1 x. The luminescence was normalized to that of DMSO-treated samples. DC50 values were obtained using three-parameter non-linear regressions using Prism (GraphPad). The compounds are classified based on DC50 values as follows. • A: DC50 is less than or equal to 1×10^−7; • B: DC50 is greater than 1×10^−7 & less than or equal to 1×10^−6; • C: DC50 is greater than 1×10^−6; • NA: not calculated (no activity detected, <25% viability reduction at 1 uM)

MV-4-11 cells = experiment: AML cell viability assay (RealTime-Glo); details: Homo sapiens, read-out: Cell viability classification
CK1α [2] = biological target: T1, CK1α; experiment: CK1α degradation, flow cytometry in MV4-11 cells; set-up: CK1α levels were determined in MV-4-11 cells using Jess (Protein Simple); host or cells: MV-4-11; details: % reduction of CK1α compared to DMSO, MV4-11 cells at 316 nM for 16 hours, read-out: CK1α degradation classification
Experimental: MV-4-11 cells were obtained from ATCC and grown in IMDM supplemented with 10% FBS. The cells were maintained at 37° C. under 5% CO2.
Compounds of the present disclosure were added to cells (final DMSO concentration of 0.5%) and incubated for 16 hours. CK1α level was determined in MV4-11 cells using flow cytometry (Luminex, Guava EasyCyte Plus). Briefly, cells were prepared with sequential 10% formalin and 70% methanol fixation. […] GuavaSoft Incyte software was used to analyse the flow cytometry data. Protein levels relative to DMSO are calculated for CK1α.
The efficacy of CK1α degradation of other part of compounds of the present disclosure was determined by treating MV4-11 cells at […] (Final DMSO concentration of 0.5%) for 16 hours. Protein levels relative to DMSO are calculated for CK1α.
Protein levels relative to DMSO are calculated for CK1α.

[3] = MV4-11, IC50 class, MV-4-11 cells, RealTime-Glo after 44 hrs of treatment (TABLE 3)

Row | Structure (SMILES) | DC50 (CK1α [1]) | IC50 (MV-4-11 cells; [3]) | Dmax at 0.316 µM (CK1α [2]) | IC50 (MV-4-11 cells; MV4-11, 44 h)
1 | CC1(C)CC(CN(c2cccc3c2CN(C2CCC(=O)NC2=O)C3=O)[C@H]2CC[C@@H](NCC3(C(F)(F)F)CC3)CC2)C1 (stereo partly shown) [Compound 657A, 3-(4-{[(3,3-dimethylcyclobutyl)methyl][(1s,4s)-4-({[1-(trifluoromethyl)cyclopropyl]methyl}amino)cyclohexyl]amino}-1-oxo-3H-isoindol-2-yl)piperidine-2,6-dione; bis(trifluoroacetic acid)] | > 1 µM |  |  | 
2 | O=C1CCC(N2Cc3c(cccc3N(CCC3CC3)[C@H]3CC[C@@H](N4CCC(F)(F)C4)CC3)C2=O)C(=O)N1 (stereo partly shown) [Compound 670A] | 0.1 to 1 µM |  |  | 
3 | O=C1CCC(N2Cc3c(cccc3N(CCC3CC3)[C@H]3CC[C@H](NCCC(F)(F)F)CC3)C2=O)C(=O)N1 (stereo partly shown) [Compound 516, 3-{4-[(2-cyclopropylethyl)[(1r,4r)-4-[(3,3,3-trifluoropropyl)amino]cyclohexyl]amino]-1-oxo-3H-isoindol-2-yl}piperidine-2,6-dione] |  | < 0.1 µM | > 75% | 
4 | CCCCCN(c1cccc2c1CN(C1CCC(=O)NC1=O)C2=O)[C@H]1CCC[C@@H](CN)C1 (stereo partly drawn) [Compound 330, 3-(4-(((1S,3R)-3-(aminomethyl)cyclohexyl)(pentyl)amino)-1-oxoisoindolin-2-yl)piperidine-2,6-dione, HCl] |  | < 0.1 µM | > 75% | 
5 | CCCCCN(c1cccc2c1CN(C1CCC(=O)NC1=O)C2=O)[C@H]1CC[C@H](NCC)CC1 (stereo partly shown) [Compound 309, 3-(4-(((1r,4r)-4-(ethylamino)cyclohexyl)(pentyl)amino)-1-oxoisoindolin-2-yl)piperidine-2,6-dione, HCl] |  | < 0.1 µM | > 75% | 
6 | CCCCCN(CCC1(CN)CCCCC1)c1cccc2c1CN(C1CCC(=O)NC1=O)C2=O (stereo not shown) [Compound 255, 3-(4-((2-(1-(aminomethyl)cyclohexyl)ethyl) (pentyl)amino)-1-oxoisoindolin-2-yl) piperidine-2,6-dione, Formic Acid] |  | 0.1 to 1 µM | 50 to 75% | 
7 | O=C1CCC(N2Cc3c(cccc3N(CCC3CC3)[C@H]3CC[C@@H](NC4CC(F)(F)C4)CC3)C2=O)C(=O)N1 (stereo partly shown) [Compound 515A, 3-(4-((2-cyclopropylethyl)((1s,4s)-4-((3,3-difluorocyclobutyl)amino)cyclohexyl)amino)-1-oxoisoindolin-2-yl)piperidine-2,6-dione formate] |  | 0.1 to 1 µM | 50 to 75% | 
8 | O=C1CCC(N2Cc3c(cccc3N(CCCC(F)(F)F)[C@H]3CC[C@H](NCCC(F)(F)F)CC3)C2=O)C(=O)N1 (stereo partly shown) [Compound 513, 3-(1-oxo-4-((4,4,4-trifluorobutyl)((1r,4r)-4-((3,3,3-trifluoropropyl)amino)cyclohexyl)amino)isoindolin-2-yl)piperidine-2,6-dione] |  | 0.1 to 1 µM | > 75% | 
9 | NC[C@H]1CC[C@@H](N(CCC2CC2)c2cccc3c2CN(C2CCC(=O)NC2=O)C3=O)CO1 (stereo partly drawn) [Compound 522, 3-(4-{[(3R,6R)-6-(aminomethyl)oxan-3-yl](2-cyclopropylethyl)amino}-1-oxo-3H-isoindol-2-yl)piperidine-2,6-dione] |  | < 0.1 µM | > 75% | 
10 | CC(C)(C)CCN(c1cccc2c1CN(C1CCC(=O)NC1=O)C2=O)[C@H]1CC[C@H](N)CC1 (stereo partly drawn) [Compound 267, 3-(4-(((1R,4R)-4-aminocyclohexyl)(3,3-dimethylbutyl)amino)-1-oxoisoindolin-2-yl)piperidine-2,6-dione hydrochloride] |  | < 0.1 µM | > 75% | 
11 | CCCCCN(c1cccc2c1CN(C1CCC(=O)NC1=O)C2=O)[C@H]1CC[C@@H](C(=O)NC)CC1 (stereo partly drawn) [Compound 308, (1S,4S)-4-((2-(2,6-dioxopiperidin-3-yl)-1-oxoisoindolin-4-yl)(pentyl)amino)-N-methylcyclohexane-1-carboxamide] |  | < 0.1 µM | > 75% | 
12 | NC[C@]1(O)CC[C@H](N(CCC2CC2)c2cccc3c2CN(C2CCC(=O)NC2=O)C3=O)CC1 (stereo partly shown) [Compound 523, 3-(4-(((1r,4r)-4-(aminomethyl)-4-hydroxycyclohexyl)(2-cyclopropylethyl)amino)-1-oxoisoindolin-2-yl)piperidine-2,6-dione] |  | 0.1 to 1 µM | 50 to 75% | 
13 | O=C1CCC(N2Cc3c(cccc3N(CCC3CC3)[C@H]3CC[C@H](NCC(=O)N4CCC4)CC3)C2=O)C(=O)N1 (stereo partly shown) [Compound 546, 3-{4-[(2-cyclopropylethyl)[(1r,4r)-4-{[2-(azetidin-1-yl)-2-oxoethyl]amino}cyclohexyl]amino]-1-oxo-3H-isoindol-2-yl}piperidine-2,6 dione] |  | < 0.1 µM | > 75% | 
14 | NCC(CCN(CCC1CC1)c1cccc2c1CN(C1CCC(=O)NC1=O)C2=O)C(F)(F)F (stereo not shown) [Compound 519, 3-(4-{[4-amino-3-(trifluoromethyl)butyl](2-cyclopropylethyl)amino}-1-oxo-3H-isoindol-2-yl)piperidine-2,6-dione] |  |  | 50 to 75% | 0.1 to 1 µM
15 | COC(C)(C)CN[C@H]1CC[C@H](N(CCC2CC2)c2cccc3c2CN(C2CCC(=O)NC2=O)C3=O)CC1 (stereo partly shown) [Compound 541, 3-(4-((2-cyclopropylethyl)((1r,4r)-4-((2-methoxy-2-methylpropyl)amino)cyclohexyl)amino)-1-oxoisoindolin-2-yl)piperidine-2,6-dione] |  | < 0.1 µM | > 75% | 
16 | COC(C)(C)CN[C@H]1CC[C@@H](N(CCC2CC2)c2cccc3c2CN(C2CCC(=O)NC2=O)C3=O)CC1 (stereo partly shown) [Compound 541A, 3-(4-((2-cyclopropylethyl)((1s,4s)-4-((2-methoxy-2-methylpropyl)amino)cyclohexyl)amino)-1-oxoisoindolin-2-yl)piperidine-2,6-dione] |  | 0.1 to 1 µM | 50 to 75% | 
17 | CCCCCN(c1cccc2c1CN(C1CCC(=O)NC1=O)C2=O)[C@@H]1CC[C@@H](CN)C1 (stereo partly drawn) [Compound 325, 3-(4-(((1R,3R)-3-(aminomethyl)cyclopentyl)(pentyl)amino)-1-oxoisoindolin-2-yl)piperidine-2,6-dione HCl salt] |  | < 0.1 µM | > 75% | 
18 | N[C@@H]1CC[C@@H](N(CCC2CC2)c2cccc3c2CN(C2CCC(=O)NC2=O)C3=O)C[C@H]1F (stereo partly drawn) [Compound 521, 3-(4-(((1R,3R,4R)-4-amino-3-fluorocyclohexyl)(2-cyclopropylethyl)amino)-1-oxoisoindolin-2-yl)piperidine-2,6-dione; formic acid] |  | < 0.1 µM | > 75% | 
19 | O=C1CCC(N2Cc3c(cccc3N(CC3CC3)[C@H]3CC[C@H](NCCC(F)(F)F)CC3)C2=O)C(=O)N1 (stereo partly shown) [Compound 533, 3-(4-((cyclopropylmethyl)((1r,4r)-4-((3,3,3-trifluoropropyl)amino)cyclohexyl)amino)-1-oxoisoindolin-2-yl)piperidine-2,6-dione] |  | < 0.1 µM | > 75% | 
20 | N[C@H]1CC[C@H](N(CCCN2CCNCC2)c2cccc3c2CN(C2CCC(=O)NC2=O)C3=O)CC1 (stereo partly shown) [Compound 245, 3-(4-(((1r,4r)-4-aminocyclohexyl)(3-(piperazin-1-yl)propyl)amino)-1-oxoisoindolin-2-yl)piperidine-2,6-dione, 3HCl] |  | > 1 µM | < 50% | 
21 | N[C@H]1CC[C@H](N(CCN2CCOCC2)c2cccc3c2CN(C2CCC(=O)NC2=O)C3=O)CC1 (stereo partly shown) [Compound 244, 3-(4-(((1r,4r)-4-aminocyclohexyl)(2-morpholinoethyl)amino)-1-oxoisoindolin-2-yl)piperidine-2,6-dione, 2HCl] |  | > 1 µM | < 50% | 
22 | C/C=C\CCN(CCCCN)c1cccc2c1CN(C1CCC(=O)NC1=O)C2=O (stereo not shown) [Compound 94, (Z)-3-(4-((4-aminobutyl)(pent-3-en-1-yl)amino)-1-oxoisoindolin-2-yl)piperidine-2,6-dione] |  | < 0.1 µM | > 75% | 
23 | CC(C)(C)CCCN(c1cccc2c1CN(C1CCC(=O)NC1=O)C2=O)[C@H]1CC[C@H](N)CC1 (stereo partly shown) [Compound 268, 3-(4-(((1r,4r)-4-aminocyclohexyl)(4,4-dimethylpentyl)amino)-1-oxoisoindolin-2-yl)piperidine-2,6-dione, HCl] |  | < 0.1 µM | > 75% | 
24 | NC[C@H]1CC[C@@H](N(CCC2CC2)c2cccc3c2CN(C2CCC(=O)NC2=O)C3=O)C1 (stereo partly drawn) [Compound 326A, 3-(4-(((1R,3S)-3-(aminomethyl)cyclopentyl)(2-cyclopropylethyl)amino)-1-oxoisoindolin-2-yl)piperidine-2,6-dione, HCl] |  | < 0.1 µM | > 75% | 
